Reference: patent US20080181971A1, “Combination Cancer Treatments Comprising Elsamitrucin and Other Agents” (priority 2007, published 2008)
“And” between values parts separate entries of the source, which are not always exact repeats. Equal entries are not always repeated. Where two headings read alike, the source gives them in different places.

What was measured:
Type in all cases: cell-based
[1] = tested on: Daudi human lymphoma cell line; assay: MTT growth inhibition assay, single agents and fixed-ratio combinations with elsamitrucin (Chou-Talalay, CalcuSyn), Daudi
Experimental: (§1) These individual agents and their combinations were evaluated for in vitro activity against the HT29 colon carcinoma, SKMES non-small cell lung carcinoma, and Daudi B-lymphoblastic cell lines. Cell growth in 96-well microculture plates was determined with a semi-automated MTT assay. Efficacies of drug combinations were analyzed according to the methods of Chou and Talalay, utilizing CalcuSyn software. Twenty-one in vitro experiments were conducted to determine the individual and combined growth inhibitory activities of elsamitrucin and the ten selected agents in the three cell lines.
(§2) b. Cell Lines. The human HT29 colon carcinoma, SKMES non-small cell lung carcinoma, and Daudi B-lymphoblastic cell lines were originally obtained from ATCC (American Type Culture Collection). These cell lines have been maintained and stored as frozen stocks. […] The medium for Daudi cells was additionally supplemented with 1 mM sodium pyruvate.
(§3) c. Growth Inhibition Assay. Anti-proliferative activities against the HT29, SKMES, and Daudi cell lines were evaluated in vitro by the MTT assay. Cells (1,500-2,000 cells/well) were seeded in a 96-well microculture plate in 180 pL of medium/well. […] DMSO was present in all wells at a final concentration of 0.1%. […] When the appropriate cell density was attained in the control wells, the plates were centrifuged briefly, and 100 pL of the growth medium was removed. The cell cultures were incubated with 50 μL of MTT reagent (1 mg/mL in Dulbecco's phosphate-buffered saline) for 4 hr at 37° C. The resultant purple formazan precipitate was solubilized with 200 μL of 0.04 N HCl in isopropanol.
(§4) The results of each experiment were stored in Excel format.
(§5) d. Preliminary Experiments: Design and Data Analysis. […] The initial experiments utilized serial three-fold dilutions of the drugs to produce ten test concentrations over a broad concentration range. Based on the initial results, a narrower concentration range was selected, and serial 1:1.5 dilutions were utilized to produce ten test concentrations. Experiments were repeated as needed.
(§6) For assays that utilized lower dilution factors to produce narrower concentration ranges, the results were analyzed with both Prism and CalcuSyn (as described below) to allow comparison of the IC50 and Da, values. The results guided the selection of appropriate concentration ranges and concentration ratios for the combination experiments.
(§7) e. Combination Experiments: Design and Data Analysis. The fixed-ratio design of Chou was used for the combination experiments. For each experiment, the drug solutions were mixed at a ratio that was expected to provide approximately equipotent concentrations, and the mixture was serially diluted with medium containing 1% DMSO to yield 10× stock solutions of the test concentrations. […] Each agent was tested individually and in combination at seven concentrations. The concentration range selected for each assay was designed to bracket the concentrations that produced half-maximal effects (ED50) with each single agent and their mixture. The concentrations used for the single-drug assays were twice as high as their concentrations in the mixture. Each assay was performed in quadruplicate. For each drug combination, the individual agents and their mixture were assayed on the same 96-well plate. The effects of the individual drugs and their combinations were analyzed by the method of Chou and Talalay. The results of each experiment were entered into CalcuSyn (BIOSOFT) for dose-effect analysis.
(§8) where Acontrol and Adrug are the respective absorbances of vehicle control and drug-treated wells in the MIT assay.
(§9) where the slope, m, is related to the sigmoidicity of the dose-effect curve, with m=1, >1, and <1 indicating hyperbolic, sigmoidal, and reverse sigmoidal shapes, respectively.

[2] = tested on: SKMES human non-small cell lung carcinoma cell line; assay: MTT growth inhibition assay, single agents and fixed-ratio combinations with elsamitrucin (Chou-Talalay, CalcuSyn), SKMES
Experimental: as §1, §2, §3, §4, §5, §6, §7, §8, §9

[3] = tested on: HT29 human colon carcinoma cell line; assay: MTT growth inhibition assay, single agents and fixed-ratio combinations with elsamitrucin (Chou-Talalay, CalcuSyn), HT29
Experimental: as §1, §2, §3, §4, §5, §6, §7, §8, §9

[4] = Homo sapiens, Daudi, SPA-05 (Daudi-e01), single agent, dilution 1:3, read-out: Prism IC50
[5] = Homo sapiens, Daudi, average of preliminary single-agent experiments, Daudi, read-out: Average IC50, Dm value
[6] = Homo sapiens, SPA-02 (SKMES-e22), single agent, dilution 1:3, read-out: Prism IC50
[7] = Homo sapiens, SPA-03 (SKMES-e23), single agent, dilution 1:1.5, read-out: CalcuSyn Dm
[8] = Homo sapiens, SPA-03 (SKMES-e23), single agent, dilution 1:1.5, read-out: Prism IC50
[9] = Homo sapiens, average of preliminary single-agent experiments, SKMES, read-out: Average IC50, Dm value
[10] = Homo sapiens, HT-29, SPA-01 (HT29-e21), single agent, dilution 1:3, read-out: Prism IC50
[11] = Homo sapiens, HT-29, SPA-04 (HT29-e22), single agent, dilution 1:1.5, read-out: CalcuSyn Dm
[12] = Homo sapiens, HT-29, SPA-04 (HT29-e22), single agent, dilution 1:1.5, read-out: Prism IC50
[13] = Homo sapiens, HT-29, average of preliminary single-agent experiments, HT29, read-out: Average IC50, Dm value

N.N.[Cl][Pt][Cl] [Cisplatin, cisplatin]
IC50 ([1]; Daudi growth inhibition, second agent alone, one value per plate, Table 8 (Supplement), read-out: Dm Value (95% Confidence Interval), Individually, Second Agent): 494 nM | IC50 ([1]; Daudi growth inhibition, second agent alone, Table 8, read-out: Dm Value (95% Confidence Interval), Individually, Second Agent): 494 nM | decrease of Dm in the combination ([1]; Daudi, in combination with elsamitrucin versus single agent): 59% | IC50 ([1]; Daudi, read-out: approximate Dm values for the second drugs as single agents): ~490 nM | IC50 ([1]; SPA-05 (Daudi-e01), single agent, dilution 1:3, read-out: Prism IC50): 367 nM | IC50 ([1]; SPA-08 (Daudi-e02), single agent, dilution 1:1.5, read-out: CalcuSyn Dm): 343 nM | IC50 ([1]; SPA-08 (Daudi-e02), single agent, dilution 1:1.5, read-out: Prism IC50): 344 nM | IC50 ([1]; average of preliminary single-agent experiments, Daudi, read-out: Average IC50, Dm value): 351 nM | IC50 ([2]; SKMES growth inhibition, second agent alone, one value per plate (Experiment ID), read-out: Dm Value (95% Confidence Interval), Individually, Second Agent): 1670 nM | decrease of Dm in the combination ([2]; SKMES, in combination with elsamitrucin versus single agent): 47% | IC50 ([2]; SKMES, single agent on the same plate as the combination, read-out: Dm Value, Individually, Second Agent): 1670 nM | IC50 ([2]; SPA-02 (SKMES-e22), single agent, dilution 1:3, read-out: Prism IC50): 675 nM | IC50 ([2]; SPA-03 (SKMES-e23), single agent, dilution 1:1.5, read-out: CalcuSyn Dm): 1180 nM | IC50 ([2]; SPA-03 (SKMES-e23), single agent, dilution 1:1.5, read-out: Prism IC50): 1140 nM | IC50 ([2]; average of preliminary single-agent experiments, SKMES, read-out: Average IC50, Dm value): 1000 nM | decrease of Dm in the combination ([3]; HT29, in combination with elsamitrucin versus single agent): 38% | IC50 ([3]; HT29, single agent on the same plate as the combination, read-out: Dm Value, Individually, Second Agent): 2330 nM and 1750 nM | IC50 ([3]; SPA-01 (HT29-e21), single agent, dilution 1:3, read-out: Prism IC50): 1850 nM | IC50 ([3]; SPA-04 (HT29-e22), single agent, dilution 1:1.5, read-out: CalcuSyn Dm): 1930 nM | IC50 ([3]; SPA-04 (HT29-e22), single agent, dilution 1:1.5, read-out: Prism IC50): 1860 nM | IC50 ([3]; average of preliminary single-agent experiments, HT29, read-out: Average IC50, Dm value): 1880 nM

CO[C@@H]1[C@@H](N)[C@@H](O[C@H]2[C@H](Oc3cccc4c(O)c5c(=O)oc6ccc(C)c7c(=O)oc(c34)c5c67)O[C@H](C)[C@H](O)[C@]2(C)O)O[C@H](C)[C@@H]1O [Elsamitrucin, benzo(h)(1)benzopyrano(5,4,3-cde)(1)ebnzopyran-5,12-dione,10((2-O-(2-amino-2,6-dideoxy-3-O-methyl-alpha-D-galactopyranosyl)-6-deoxy-3-C-methyl-beta-D-galactopyranosyl)oxy)-6-hydroxy-1-methyl]
IC50 ([1]; Daudi growth inhibition, elsamitrucin alone, one value per plate, Table 8 (Supplement), read-out: Dm Value (95% Confidence Interval), Individually, Elsamitrucin): 23 nM and 30 nM and 28 nM and 15 nM and 13 nM and 34 nM and 26 nM | IC50 ([1]; Daudi growth inhibition, elsamitrucin alone, one value per plate, Table 8, read-out: Dm Value (95% Confidence Interval), Individually, Elsamitrucin): 30 nM and 28 nM and 13 nM and 34 nM and 26 nM and 23 nM | IC50 [1, 4]: 12 nM | IC50 ([1]; Homo sapiens, Daudi, SPA-15 (Daudi-e03), single agent, dilution 1:1.5 (elsamitrucin 1:1.33), read-out: CalcuSyn Dm): 46 nM | IC50 ([1]; Homo sapiens, Daudi, SPA-15 (Daudi-e03), single agent, dilution 1:1.5 (elsamitrucin 1:1.33), read-out: Prism IC50): 40 nM | IC50 [1, 5]: 33 nM | IC50 ([1]; Homo sapiens, Daudi, single agent, ten assays of Table 8, read-out: average Dm): 27 nM | IC50 ([1]; Homo sapiens, Daudi, single agent, ten assays of Table 8, read-out: range of Dm): 13 to 34 nM | IC50 ([2]; Homo sapiens, SKMES cells, single agent, read-out: average Dm): 22 nM | IC50 ([2]; Homo sapiens, SKMES, single agent, ten assays of Table 5, read-out: average Dm): 22 nM | IC50 ([2]; Homo sapiens, SKMES, single agent, ten assays of Table 5, read-out: range of Dm): 11 to 53 nM | IC50 [2, 6]: 12 nM | IC50 [2, 7]: 25.6 nM | IC50 [2, 8]: 24.4 nM | IC50 [2, 9]: 21 nM | IC50 ([3]; HT29, single agent on the same plate as the combination, read-out: Dm Value, Individually, Elsamitrucin): 36 nM and 118 nM and 96 nM and 58 nM and 54 nM and 67 nM and 39 nM and 40 nM and 103 nM and 51 nM and 37 nM and 29 nM and 86 nM and 73 nM and 50 nM and 71 nM and 124 nM and 32 nM and 27 nM | IC50 ([3]; Homo sapiens, HT-29, HT29, Table 1, read-out: average Dm determined in the preliminary experiments): 77 nM | IC50 ([3]; Homo sapiens, HT-29, HT29, single agent, ten selected assays of Table 2, read-out: average Dm): 63 nM | IC50 ([3]; Homo sapiens, HT-29, HT29, single agent, ten selected assays of Table 2, read-out: range of Dm): 36 to 118 nM | IC50 ([3]; Homo sapiens, HT-29, HT29 cells, single agent, read-out: average Dm): 63 nM | IC50 [3, 10]: 80 nM | IC50 [3, 11]: 81 nM | IC50 [3, 12]: 70 nM | IC50 [3, 13]: 77 nM

CC(=O)O[C@H]1C(=O)[C@@]2(C)[C@H]([C@H](OC(=O)c3ccccc3)[C@]3(O)C[C@H](OC(=O)[C@H](O)[C@@H](NC(=O)c4ccccc4)c4ccccc4)C(C)=C1C3(C)C)[C@]1(OC(C)=O)CO[C@@H]1C[C@@H]2O [Paclitaxel, paclitaxel]
IC50 ([1]; Homo sapiens, Daudi, Daudi growth inhibition, second agent alone, one value per plate, Table 8 (Supplement), read-out: Dm Value (95% Confidence Interval), Individually, Second Agent): 4 nM | IC50 ([1]; Homo sapiens, Daudi, Daudi growth inhibition, second agent alone, Table 8, read-out: Dm Value (95% Confidence Interval), Individually, Second Agent): 4 nM | IC50 [1, 4]: 3.6 nM | IC50 ([1]; Homo sapiens, Daudi, SPA-08 (Daudi-e02), single agent, dilution 1:1.5, read-out: CalcuSyn Dm): 4.1 nM | IC50 ([1]; Homo sapiens, Daudi, SPA-08 (Daudi-e02), single agent, dilution 1:1.5, read-out: Prism IC50): 3.3 nM | IC50 [1, 5]: 4 nM | IC50 ([1]; Homo sapiens, Daudi, read-out: approximate Dm values for the second drugs as single agents): ~4 nM | IC50 ([2]; Homo sapiens, SKMES growth inhibition, second agent alone, one value per plate (Experiment ID), read-out: Dm Value (95% Confidence Interval), Individually, Second Agent): 3.5 nM | IC50 ([2]; Homo sapiens, SKMES, single agent on the same plate as the combination, read-out: Dm Value, Individually, Second Agent): 3.5 nM | IC50 [2, 6]: 1.1 nM | IC50 [2, 7]: 2.8 nM | IC50 [2, 8]: 2.6 nM | IC50 [2, 9]: 2 nM | IC50 ([3]; Homo sapiens, HT-29, HT29, single agent on the same plate as the combination, read-out: Dm Value, Individually, Second Agent): 3.2 nM | IC50 [3, 10]: 1.6 nM | IC50 [3, 11]: 2.3 nM | IC50 [3, 12]: 2.4 nM | IC50 [3, 13]: 2 nM
